Data published in patent publication US7462625B2, “Gonadotropin-releasing hormone receptor antagonists and methods relating thereto” (Neurocrine Biosciences, Inc., priority 2000, dated 2008).
pKi: −log10 of the molar value. Structures can show the parent of a compound that is named as a salt.

Target: T1, GnRH receptor (Homo sapiens, UniProt P30968)
T1 construct: expressed in transfected cells
T1 sequence (P30968 1-328): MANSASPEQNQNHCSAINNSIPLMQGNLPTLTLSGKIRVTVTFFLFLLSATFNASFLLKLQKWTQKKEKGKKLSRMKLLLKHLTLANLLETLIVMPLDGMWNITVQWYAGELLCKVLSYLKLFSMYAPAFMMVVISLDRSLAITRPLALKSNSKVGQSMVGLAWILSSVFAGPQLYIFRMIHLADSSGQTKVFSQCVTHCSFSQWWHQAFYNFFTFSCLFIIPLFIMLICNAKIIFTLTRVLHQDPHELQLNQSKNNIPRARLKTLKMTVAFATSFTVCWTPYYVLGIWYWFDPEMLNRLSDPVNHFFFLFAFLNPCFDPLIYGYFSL
Assay: GnRH receptor membrane binding assay
Settings: GnRH receptor membrane binding assay, [125I]-labeled GnRH peptide; read-out: Ki
Description: Radio-Iodination of GnRH Peptide
The GnRH analog is labeled by the chloramine-T method. […] The reaction is stopped by the addition of 60 μg sodium metabisulfite and the free iodine is removed by passing the iodinated mixture through a C-8 Sep-Pak cartridge (Millipore Corp., Milford, Mass.). The peptide is eluted with a small volume of 80% acetonitrile/water. […] The purified radioactive peptide is stored in 0.1% BSA/20% acetonitrile/0.1% TFA at −80° C. and can be used for up to 4 weeks.
GnRH Receptor Membrane Binding Assay
Cells stably, or transiently, transfected with GnRH receptor expression vectors are harvested, resuspended in 5% sucrose and homogenized using a polytron homogenizer (2×15 sec). Nucleii are removed by centrifugation (3000×g for 5 min.), and the supernatant centrifuged (20,000×g for 30 min, 4° C.) to collect the membrane fraction. The final membrane preparation is resuspended in binding buffer (10 mM Hepes (pH 7.5), 150 mM NaCl, and 0.1% BSA) and stored at −70° C. Binding reactions are performed in a Millipore MultiScreen 96-well filtration plate assembly with polyethylenimine coated GF/C membranes. […] The reaction is terminated after 90 minutes by application of vacuum and washing (2×) with phosphate buffered saline. Bound radioactivity is measured using 96-well scintillation counting (Packard Topcount) or by removing the filters from the plate and direct gamma counting. Ki values are calculated from competition binding data using non-linear least squares regression using the Prism software package (GraphPad Software).

`COc1cccc(-c2c(C)n(Cc3c(F)cccc3F)c(=O)n(C(C)CNCc3ccccn3)c2=O)c1` (stereo not drawn) [9-402] was tested. Which pKi did it give?
The pKi was over 7.00.

`COc1cccc(-c2c(C)n(Cc3c(F)cccc3F)c(=O)n(C[C@H](C)N(C)Cc3ccccn3)c2=O)c1F` [9-409] was tested. Which pKi did it give?
The pKi was over 7.00.

With `Cc1cccnc1CCN1CCCC1Cn1c(=O)cc(C)n(Cc2c(F)cccc2F)c1=O` (stereo not drawn) [9-415] as the compound, how does the pKi read?
Its pKi is over 7.00.

How did the pKi turn out when `COc1cccc(-c2c(C)n(Cc3c(F)cccc3F)c(=O)n(C[C@H](Cc3ccccc3)N(C)C)c2=O)c1F` [9-443] was run?
Its pKi is over 7.00.

How did the pKi turn out when `COc1cccc(-c2c(C)n(Cc3c(F)cccc3F)c(=O)n([C@H](C)CNCc3ccccc3F)c2=O)c1` [9-446] was run?
Its pKi is over 7.00.

With `COc1cccc(-c2c(C)n(Cc3c(F)cccc3F)c(=O)n([C@H](C)CNCc3cccc(F)c3)c2=O)c1` [9-448] as the compound, how does the pKi read?
The pKi was over 7.00.

`COc1cccc(-c2c(C)n(Cc3c(F)cccc3F)c(=O)n([C@H](C)CNCc3cc(C)cc(C)c3)c2=O)c1` [9-454] was tested. Which pKi did it give?
The pKi was over 7.00.

`COc1cccc(-c2c(C)n(Cc3c(F)cccc3F)c(=O)n(C[C@H](C)NCCc3ccccn3)c2=O)c1F` [9-470] was tested. Which pKi did it give?
Its pKi is over 7.00.

How did the pKi turn out when `COc1cccc(-c2c(C)n(Cc3c(F)cccc3F)c(=O)n([C@H](C)CNCc3cccc(C)c3)c2=O)c1` [9-473] was run?
Its pKi is over 7.00.

With `COc1cccc(CNC[C@@H](C)n2c(=O)c(-c3cccc(OC)c3)c(C)n(Cc3c(F)cccc3F)c2=O)c1` [9-477] as the compound, how does the pKi read?
Its pKi is over 7.00.

With `COc1cccc(-c2c(C)n(Cc3c(F)cccc3F)c(=O)n([C@H](C)CNCc3ccc4c(c3)CCO4)c2=O)c1F` [9-495] as the compound, how does the pKi read?
Its pKi is over 7.00.

How did the pKi turn out when `COc1cccc(-c2c(C)n(Cc3c(F)cccc3F)c(=O)n([C@H](C)CNCc3cccc4ccccc34)c2=O)c1F` [9-502] was run?
The pKi was over 7.00.

`COc1cccc(-c2c(C)n(Cc3c(F)cccc3F)c(=O)n([C@H](C)CNCc3cc(Cl)ccc3O)c2=O)c1F` [9-503] was tested. Which pKi did it give?
The pKi was over 7.00.

With `COc1cccc(-c2c(C)n(Cc3c(F)cccc3F)c(=O)n([C@H](C)CNCc3c[nH]c4ccccc34)c2=O)c1F` [9-509] as the compound, how does the pKi read?
Its pKi is over 7.00.

With `COc1cccc(-c2c(C)n(Cc3c(F)cccc3F)c(=O)n([C@H](C)CNCc3ccccn3)c2=O)c1F` [9-512] as the compound, how does the pKi read?
Its pKi is over 7.00.

`COc1cccc(-c2c(C)n(Cc3c(F)cccc3F)c(=O)n([C@H](C)CNCc3c(F)cccc3Cl)c2=O)c1` [9-514] was tested. Which pKi did it give?
Its pKi is over 7.00.

With `CN[C@@H](Cc1ccccc1)Cn1c(=O)c(-c2cccc(OC)c2F)c(C)n(Cc2c(F)cccc2F)c1=O` [9-517] as the compound, how does the pKi read?
The pKi was over 7.00.

`COc1cccc(-c2c(C)n(Cc3c(F)cccc3F)c(=O)n(C[C@@H](C)NCc3ccsc3)c2=O)c1F` [9-570] was tested. Which pKi did it give?
Its pKi is over 7.00.

How did the pKi turn out when `COc1cccc(-c2c(C)n(Cc3c(F)cccc3F)c(=O)n(CC(C)NCC3CCCCC3)c2=O)c1F` (stereo not drawn) [9-589] was run?
The pKi was over 7.00.

How did the pKi turn out when `COc1cccc(-c2c(C)n(Cc3c(F)cccc3F)c(=O)n(CC(C)NCc3cc(C)c(C)o3)c2=O)c1F` (stereo not drawn) [9-595] was run?
Its pKi is over 7.00.

With `COc1cccc(-c2c(C)n(Cc3c(F)cccc3F)c(=O)n(C[C@H](C)NCc3[nH]cnc3C)c2=O)c1F` [9-602] as the compound, how does the pKi read?
Its pKi is over 7.00.

With `CCCCN(CCCC)[C@H](C)Cn1c(=O)c(-c2cccc(OC)c2F)c(C)n(Cc2c(F)cccc2F)c1=O` [9-612] as the compound, how does the pKi read?
The pKi was over 7.00.

How did the pKi turn out when `COc1cccc(-c2c(C)n(Cc3c(F)cccc3F)c(=O)n(C[C@@H](C)NC(C)C(C)C)c2=O)c1F` (stereo partly drawn) [9-613] was run?
The pKi was over 7.00.

How did the pKi turn out when `COc1cccc(-c2c(C)n(Cc3c(F)cccc3F)c(=O)n(CC(C)NCc3cccn3C)c2=O)c1F` (stereo not drawn) [9-618] was run?
Its pKi is over 7.00.

With `COc1cccc(-c2c(C)n(Cc3c(F)cccc3F)c(=O)n(CC(C)NCc3cccs3)c2=O)c1F` (stereo not drawn) [9-621] as the compound, how does the pKi read?
The pKi was over 7.00.

With `COc1cccc(-c2c(C)n(Cc3c(F)cccc3F)c(=O)n(CC(C)NCc3cc(Br)cs3)c2=O)c1F` (stereo not drawn) [9-622] as the compound, how does the pKi read?
Its pKi is over 7.00.

With `COc1ccccc1CNC[C@@H](C)n1c(=O)c(-c2cccc(C)c2F)c(C)n(Cc2c(F)cccc2F)c1=O` [9-634] as the compound, how does the pKi read?
Its pKi is over 7.00.

With `CCOc1ccccc1CNC[C@@H](C)n1c(=O)c(-c2cccc(C)c2F)c(C)n(Cc2c(F)cccc2F)c1=O` [9-636] as the compound, how does the pKi read?
The pKi was over 7.00.

With `COc1cccc(-c2c(C)n(Cc3c(F)cccc3F)c(=O)n(C[C@@H](C)NCc3ccco3)c2=O)c1F` [9-652] as the compound, how does the pKi read?
The pKi was over 7.00.

With `COc1cccc(-c2c(C)n(Cc3c(F)cccc3F)c(=O)n([C@H](C)CNCc3ccccc3C)c2=O)c1F` [9-653] as the compound, how does the pKi read?
Its pKi is over 7.00.

With `COc1cccc(-c2c(C)n(Cc3c(F)cccc3F)c(=O)n(C[C@H](C)NCc3cccn3C)c2=O)c1F` [9-664] as the compound, how does the pKi read?
Its pKi is over 7.00.

`CCc1ccc(CN[C@@H](C)Cn2c(=O)c(-c3cccc(OC)c3F)c(C)n(Cc3c(F)cccc3F)c2=O)o1` [9-665] was tested. Which pKi did it give?
Its pKi is over 7.00.

How did the pKi turn out when `COc1cccc(-c2c(C)n(Cc3c(F)cccc3F)c(=O)n(C[C@H](C)NCc3ccc(Cl)s3)c2=O)c1F` [9-677] was run?
The pKi was over 7.00.

`CCC(C)C(C)CN[C@@H](C)Cn1c(=O)c(-c2cccc(OC)c2F)c(C)n(Cc2c(F)cccc2F)c1=O` (stereo partly drawn) [9-678] was tested. Which pKi did it give?
Its pKi is over 7.00.

How did the pKi turn out when `COc1cccc(-c2c(C)n(Cc3c(F)cccc3F)c(=O)n(C[C@H](C)NCc3ccc(O)cc3)c2=O)c1F` [9-680] was run?
Its pKi is over 7.00.

`CCCN(CCC)[C@@H](C)Cn1c(=O)c(-c2cccc(OC)c2F)c(C)n(Cc2c(F)cccc2F)c1=O` [9-681] was tested. Which pKi did it give?
Its pKi is over 7.00.

With `CCC(CC(C)C)N[C@@H](C)Cn1c(=O)c(-c2cccc(OC)c2F)c(C)n(Cc2c(F)cccc2F)c1=O` (stereo partly drawn) [9-688] as the compound, how does the pKi read?
Its pKi is over 7.00.

`COc1cccc(-c2c(C)n(Cc3c(F)cccc3F)c(=O)n(C[C@H](CC(C)C)N(C)C)c2=O)c1F` [9-704] was tested. Which pKi did it give?
Its pKi is over 7.00.

With `COc1cccc(-c2c(C)n(Cc3c(F)cccc3F)c(=O)n(C[C@@H](C(C)C)N(C)C)c2=O)c1F` [9-711] as the compound, how does the pKi read?
The pKi was over 7.00.

With `COc1cccc(-c2c(C)n(Cc3c(F)cccc3F)c(=O)n(C[C@@H](NC(C)C)C(C)C)c2=O)c1F` [9-712] as the compound, how does the pKi read?
Its pKi is over 7.00.

`CCN[C@H](Cn1c(=O)c(-c2cccc(OC)c2F)c(C)n(Cc2c(F)cccc2F)c1=O)C(C)C` [9-714] was tested. Which pKi did it give?
Its pKi is over 7.00.

How did the pKi turn out when `Cc1c(-c2ccc3c(c2)OCO3)c(=O)n(C[C@H](CO)N(CC2CC2)CC2CC2)c(=O)n1Cc1c(F)cccc1F` [9-745] was run?
The pKi was over 7.00.

With `COc1cccc(-c2c(C)n(Cc3c(F)cccc3F)c(=O)n(CC[C@@H](N)c3ccccc3)c2=O)c1` [9-774] as the compound, how does the pKi read?
The pKi was over 7.00.

How did the pKi turn out when `Cc1c(-c2ccccc2F)c(=O)n(C[C@H](N)c2ccccc2)c(=O)n1Cc1c(F)cccc1F` [10-1, 6-Methyl-5-(2-fluorophenyl)-3-[2(R)-amino-2-phenylethyl]-1-(2,6-difluorobenzyl)uracil trifluoroacetic acid salt] was run?
The pKi was over 7.00.

`Cc1nc(-c2c(C)n(Cc3c(F)cccc3F)c(=O)n(C[C@H](N)c3ccccc3)c2=O)cs1` [12-1] was tested. Which pKi did it give?
Its pKi is over 7.00.

How did the pKi turn out when `Cc1c(-c2csc(-c3ccccc3)n2)c(=O)n(C[C@H](N)c2ccccc2)c(=O)n1Cc1c(F)cccc1F` [12-4] was run?
Its pKi is over 7.00.

With `Cc1c(-c2csc(Cc3ccccc3)n2)c(=O)n(C[C@H](N)c2ccccc2)c(=O)n1Cc1c(F)cccc1F` [12-5] as the compound, how does the pKi read?
Its pKi is over 7.00.

With `COc1ccc(Nc2nc(-c3c(C)n(Cc4c(F)cccc4F)c(=O)n(C[C@H](N)c4ccccc4)c3=O)cs2)cc1` [12-10] as the compound, how does the pKi read?
The pKi was over 7.00.

With `Cc1c(-c2csc(-c3ccc(F)cc3)n2)c(=O)n(C[C@H](N)c2ccccc2)c(=O)n1Cc1c(F)cccc1F` [12-24] as the compound, how does the pKi read?
The pKi was over 7.00.

`COc1ccc(Nc2nc(-c3c(C)n(Cc4c(F)cccc4F)c(=O)n(C[C@H](N)c4ccccc4)c3=O)cs2)cc1OC` [12-27] was tested. Which pKi did it give?
Its pKi is over 7.00.

With `Cc1ccc(Nc2nc(-c3c(C)n(Cc4c(F)cccc4F)c(=O)n(C[C@H](N)c4ccccc4)c3=O)cs2)cc1` [12-32] as the compound, how does the pKi read?
Its pKi is over 7.00.

With `CN[C@H](CC(C)C)Cn1c(=O)c(-c2cccc(OC)c2F)cn(Cc2c(F)cccc2F)c1=O` [13-4] as the compound, how does the pKi read?
Its pKi is over 7.00.

With `CCc1c(-c2cccc(OC)c2F)c(=O)n(C[C@H](N)c2ccccc2)c(=O)n1Cc1c(F)cccc1F` [15-1] as the compound, how does the pKi read?
Its pKi is over 7.00.

`CCc1c(-c2cccc(OC)c2)c(=O)n(C[C@H](N)c2ccccc2)c(=O)n1Cc1c(F)cccc1F` [15-2] was tested. Which pKi did it give?
The pKi was over 7.00.
